Molecules are shown by their SMILES.

In the test the target is T1, human PPARdelta (Homo sapiens, UniProt Q03181).
T1 construct: human PPARdelta receptor (amino acids S139-Y441); expressed in transfected cells; plasmid pcDNA3
T1 sequence (Q03181 139-441): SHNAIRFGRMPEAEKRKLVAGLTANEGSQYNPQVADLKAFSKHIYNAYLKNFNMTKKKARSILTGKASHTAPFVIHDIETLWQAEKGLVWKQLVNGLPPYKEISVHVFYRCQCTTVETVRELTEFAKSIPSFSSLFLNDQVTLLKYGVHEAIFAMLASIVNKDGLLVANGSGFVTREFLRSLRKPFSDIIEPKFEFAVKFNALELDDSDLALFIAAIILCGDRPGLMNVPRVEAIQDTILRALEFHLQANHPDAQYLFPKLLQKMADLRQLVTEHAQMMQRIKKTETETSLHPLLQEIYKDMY
Description: cellular PPARdelta assay (GAL4 luciferase reporter, stably transfected HEK cell line). Type of test: cell-based. Here is the method:
The PPARalpha reporter cell line is cultivated to 80% confluence in DMEM (# 41965-039, Invitrogen) which is mixed with the following additions: 10% cs-FCS (fetal calf serum; #SH-30068.03, Hyclone), 0.5 mg/ml zeocin (#R250-01, Invitrogen), 0.5 mg/ml G418 (#10136-027, Invitrogen), 1% penicillin-streptomycin solution (#15140-122, Invitrogen) and 2 mM L-glutamine (#25030-024, Invitrogen). The cultivation takes place in standard cell culture bottles (# 353612, Becton Dickinson) in a cell culture incubator at 37° C. in the presence of 5% CO2. The 80%-confluent cells are washed once with 15 ml of PBS (#14190-094, Invitrogen), treated with 3 ml of trypsin solution (#25300-054, Invitrogen) at 37° C. for 2 min, taken up in 5 ml of the DMEM described and counted in a cell counter. After dilution to 500.000 cells/ml, 35,000 cells are seeded in each well of a 96 well microtiter plate with a clear plastic base (#3610, Corning Costar). The plates are incubated in the cell culture incubator at 37° C. and 5% CO2 for 24 h.
PPARalpha agonists to be tested are dissolved in DMSO in a concentration of 10 mM. This stock solution is diluted in DMEM (#41965-039, Invitrogen) which is mixed with 5% cs-FCS (#SH-30068.03, Hyclone), 2 mM L-glutamine (#25030-024, Invitrogen) and the previously described antibiotics (zeocin, G418, penicillin and streptomycin). Test substances are tested in 11 different concentrations in the range from 10 μM to 100 pM.
The medium of the PPARalpha reporter cell line seeded on day 1 is completely removed by aspiration, and the test substances diluted in medium are immediately added to the cells. The dilution and addition of the substances is carried out by a robot (Beckman FX). The final volume of the test substances diluted in medium is 100 μl per well of a 96 well microtiter plate. The DMSO concentration in the assay is less than 0.1% v/v in order to avoid cytotoxic effects of the solvent.
The PPARalpha reporter cells treated with the test substances are removed from the incubator, and the medium is aspirated off. The cells are lyzed by pipetting 50 μl of Bright Glo reagent (from Promega) into each well of a 96 well microtiter plate. After incubation at room temperature in the dark for 10 minutes, the microtiter plates are measured in the luminometer (Trilux from Wallac). The measuring time for each well of a microtiter plate is 1 sec.
The raw data from the luminometer are transferred into a Microsoft Excel file. Dose-effect plots and EC50 values of PPAR agonists are calculated using the XL.Fit program as specified by the manufacturer (IDBS). […] The compounds of the present invention of formula I activate the PPARalpha receptor.
The potency of substances which bind to human PPARdelta and activate it in an agonistic manner was analyzed using a stably transfected HEK cell line (HEK=human embryo kidney) which is referred to here as PPARdelta reporter cell line. In analogy to the assay described for PPARalpha, the PPARdelta reporter cell line also contains two genetic elements, a luciferase reporter element (pdeltaM-GAL4-Luc-Zeo) and a PPARdelta fusion protein (GR-GAL4-humanPPARdelta-LBD) which mediates expression of the luciferase reporter element depending on a PPARdelta ligand. The stably and constitutively expressed fusion protein GR-GAL4-humanPPARdelta-LBD binds in the cell nucleus of the PPARdelta reporter cell line via the GAL4 protein portion to the GAL4 DNA binding motifs 5′-upstream of the luciferase reporter element which is stably integrated in the genome of the cell line. There is only little expression of the luciferase reporter gene in the absence of a PPARdelta ligand if fatty acid-depleted fetal calf serum (cs-FCS) is used in the assay. PPARdelta ligands bind and activate the PPARdelta fusion protein and thereby stimulate expression of the luciferase reporter gene. The luciferase which is formed can be detected by means of chemiluminescence via an appropriate substrate. […]
For the molecule `CCC(Oc1ccc(-c2noc(=O)[nH]2)c(Cl)c1)c1sc(-c2ccc(C(F)(F)F)cc2)nc1C` (racemic) [Example 4, 3-(2-Chloro-4-{1-[4-methyl-2-(4-trifluoromethyl-phenyl)-thiazol-5-yl]-propoxy}-phenyl)-4H-[1,2,4]oxadiazol-5-one], the 50% effective concentration (EC50) was 0.2 nM.
Turning to `CCC(Oc1ccc(-c2noc(=O)[nH]2)c(OC(F)F)c1)c1sc(-c2ccc(C(F)(F)F)cc2)nc1C` (racemic) [Example 37, 3-(2-Difluoromethoxy-4-{1-[4-methyl-2-(4-trifluoromethyl-phenyl)-thiazol-5-yl]-propoxy}-phenyl)-4H-1,2,4-oxadiazol-5-one], the midpoint of the response, the EC50, lay at 0.5 nM.
Turning to `Cc1nc(-c2ccc(C(F)(F)F)cc2)sc1C(OCc1ccc(-c2noc(=O)[nH]2)c(Cl)n1)C(F)(F)F` (racemic) [Example 27, 3-(2-Chloro-6-{2,2,2-trifluoro-1-[4-methyl-2-(4-trifluoromethyl-phenyl)-thiazol-5-yl]-ethoxymethyl}-pyridin-3-yl)-4H-[1,2,4]oxadiazol-5-one], the EC50 is 17 nM.
Under `CCC(Oc1ccc(-c2noc(=O)[nH]2)c(F)c1)c1sc(-c2ccc(C(F)(F)F)cc2)nc1C` (racemic) [Example 35, 3-(2-Fluoro-4-{1-[4-methyl-2-(4-trifluoromethyl-phenyl)-thiazol-5-yl]-propoxy}-phenyl)-4H-1,2,4-oxadiazol-5-one] stands 4 nM; under `Cc1nc(-c2ccc(C(F)(F)F)cc2)sc1C(OCc1ccc(-c2noc(=O)[nH]2)cc1)C(F)(F)C1CC1` (racemic) [Example 32, 3-(4-{2-Cyclopropyl-2,2-difluoro-1-[4-methyl-2-(4-trifluoromethyl-phenyl)-thiazol-5-yl]-ethoxymethyl}-phenyl)-4H-[1,2,4]oxadiazol-5-one], 127 nM.
Under `CCC(Oc1ccc(-c2noc(=O)[nH]2)c(OCC(F)(F)F)c1)c1sc(-c2ccc(C(F)(F)F)cc2)nc1C` (racemic) [Example 48, 3-[4-{1-[4-Methyl-2-(4-trifluoromethyl-phenyl)-thiazol-5-yl]-propoxy}-2-(2,2,2-trifluoro-ethoxy)-phenyl]-4H-1,2,4-oxadiazol-5-one] stands 1 nM; under `CC[C@@H](Oc1cc(OC)c(-c2noc(=O)[nH]2)cc1F)c1sc(-c2ccc(C(F)(F)F)cc2)nc1C` [(+)-40, (+)-3-(5-Fluoro-2-methoxy-4-{(R)-1-[4-methyl-2-(4-trifluoromethyl-phenyl)-thiazol-5-yl]-propoxy}-phenyl)-4H-1,2,4-oxadiazol-5-one], 1 nM; under `Cc1nc(-c2ccc(C(F)(F)F)cc2)sc1C(OCc1ccc(-c2noc(=O)[nH]2)c(F)c1)C(F)(F)F` (racemic) [Example 22, 3-(2-Fluoro-4-{2,2,2-trifluoro-1-[4-methyl-2-(4-trifluoromethyl-phenyl)-thiazol-5-yl]-ethoxymethyl}-phenyl)-4H-[1,2,4]oxadiazol-5-one], 17 nM.
Under `Cc1nc(-c2ccc(C(F)(F)F)cc2)sc1C(OCc1ccc(-c2noc(=O)[nH]2)c2cccnc12)C(F)(F)F` (racemic) [Example 25, 3-(8-{2,2,2-Trifluoro-1-[4-methyl-2-(4-trifluoromethyl-phenyl)-thiazol-5-yl]-ethoxymethyl}-quinolin-5-yl)-4H-[1,2,4]oxadiazol-5-one] stands 3 nM.
`Cc1nc(-c2ccc(C(F)(F)F)cc2)sc1C(Cc1ccccn1)Oc1ccc(-c2noc(=O)[nH]2)c(Cl)c1` (racemic) [Example 10, 3-(2-Chloro-4-{1-[4-methyl-2-(4-trifluoromethyl-phenyl)-thiazol-5-yl]-2-pyridin-2-yl-ethoxy}-phenyl)-4H-[1,2,4]oxadiazol-5-one]: the EC50 was 6 nM.
Under `CCCCC(Cc1ccc(-c2noc(=O)[nH]2)c(F)c1)c1sc(-c2ccc(C(F)(F)F)cc2)nc1C` (racemic) [Example 34, 3-(2-Fluoro-4-{2-[4-methyl-2-(4-trifluoromethyl-phenyl)-thiazol-5-yl]-hexyl}-phenyl)-4H-[1,2,4]oxadiazol-5-one] stands 1 nM.
Then `Cc1nc(-c2ccc(C(F)(F)F)cc2)sc1C(Oc1ccc(-c2noc(=O)[nH]2)c(Cl)c1)C(F)(F)F` (racemic) [Example 20, 3-(2-Chloro-4-{2,2,2-trifluoro-1-[4-methyl-2-(4-trifluoromethyl-phenyl)-thiazol-5-yl]-ethoxy}-phenyl)-4H-[1,2,4]oxadiazol-5-one], with 1 nM; and `CCC(Oc1ccc(-c2noc(=O)[nH]2)c(OC)c1)c1sc(-c2ccc(C(F)(F)F)cc2)nc1CN1CCC(C(F)(F)F)CC1` (racemic) [Example 42, 3-(2-Methoxy-4-{1-[2-(4-trifluoromethyl-phenyl)-4-(4-trifluoromethyl-piperidin-1-ylmethyl)-thiazol-5-yl]-propoxy}-phenyl)-4H-1,2,4-oxadiazol-5-one], with 8 nM; and `CCC(Oc1ccc(-c2noc(=O)[nH]2)c(C2CC2)c1)c1sc(-c2ccc(C(F)(F)F)cc2)nc1C` (racemic) [Example 16, 3-(2-Cyclopropyl-4-{1-[4-methyl-2-(4-trifluoromethyl-Phenyl)-thiazol-5-yl]-propoxy}-phenyl)-4H-[1,2,4]oxadiazol-5-one], with 1 nM.
Under `CC[C@@H](Oc1ccc(-c2noc(=O)[nH]2)c(OC(F)F)c1)c1sc(-c2ccc(C(F)(F)F)cc2)nc1CN1CCC(C(F)(F)F)CC1` [(+)-45, (+)-3-(2-Difluoromethoxy-4-{(R)-1-[2-(4-trifluoromethyl-phenyl)-4-(4-trifluoromethyl-piperidin-1-ylmethyl)-thiazol-5-yl]-propoxy}-phenyl)-4H-1,2,4-oxadiazol-5-one] stands 0.3 nM.

As a reminder, the EC50 is the concentration needed to bring the measured effect to its halfway point. Read a high EC50 as a need for much substance.

The record behind these values is patent US7834030B2, “Phenyl-[1,2,4]-oxadiazol-5-one derivatives, pharmaceutical compositions and therapeutic use thereof” (Sanofi-Aventis, priority 2005, dated 2010).
